# Test results: ChEMBL document CHEMBL1201862, “PubChem BioAssay data set” (2004)
# Activity calls are given as the source filed them.
# Key:
# [1] = molecular target: Phosphorylase b kinase gamma catalytic chain, liver/testis isoform (Homo sapiens, UniProt P15735); assay type: functional;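 note: PHKG2 measured as one member of a kinome-wide kinase panel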
# [2] = molecular target: Serine/threonine-protein kinase PLK3 (Homo sapiens, UniProt Q9H4B4); assay type: functional
# [3] = molecular target: Protein kinase C delta type (Homo sapiens, UniProt Q05655); assay type: functional
# [4] = molecular target: Calcium/calmodulin-dependent protein kinase type II subunit gamma (Homo sapiens, UniProt Q13555); assay type: functional
# [5] = molecular target: Cyclin-dependent kinase 2 (Homo sapiens, UniProt P24941); assay type: functional;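 note: CDK2 measured as one member of a broad kinome profiling panel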
# [6] = molecular target: MAP kinase-activated protein kinase 2 (Homo sapiens, UniProt P49137); assay type: functional;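 note: measured as one member of a kinome-wide kinase panel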
# [7] = molecular target: Serine/threonine-protein kinase PAK 1 (Homo sapiens, UniProt Q13153); assay type: functional
# [8] = molecular target: Mitogen-activated protein kinase 13 (Homo sapiens, UniProt O15264); assay type: functional
# [9] = molecular target: Protein kinase C gamma type (Homo sapiens, UniProt P05129); assay type: functional
# Ephrin type-A receptor 2 = Ephrin type-A receptor 2 (Homo sapiens, UniProt P29317); assay type: functional;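 note: EPHA2 tested as one member of a kinome-wide kinase panel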
# [10] = molecular target: Protein kinase C iota type (Homo sapiens, UniProt P41743); assay type: functional;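 note: measured within a kinome-wide kinase panel, PRKCI as panel member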
# [11] = molecular target: Vascular endothelial growth factor receptor 3 (Homo sapiens, UniProt P35916); assay type: functional;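 note: value from a kinome-wide profiling panel, with FLT4 as the panel member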
# [12] = molecular target: Homeodomain-interacting protein kinase 4 (Homo sapiens, UniProt Q8NE63); assay type: functional
# [13] = molecular target: Serine/threonine-protein kinase DCLK1 (Homo sapiens, UniProt O15075); assay type: functional;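 note: affinity for DCLK1 (listed as DCAMKL1) measured as one member of a kinome-wide kinase profiling panel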
# [14] = molecular target: Fibroblast growth factor receptor 3 (Homo sapiens, UniProt P22607); assay type: functional
# [15] = molecular target: Serine/threonine-protein kinase PLK1 (Homo sapiens, UniProt P53350); assay type: functional;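 note: PLK1 measured as one member of a kinome-wide profiling panel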
# [16] = molecular target: Receptor tyrosine-protein kinase erbB-4 (Homo sapiens, UniProt Q15303); assay type: functional;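 note: ERBB4 member of a kinome-wide kinase profiling panel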
# [17] = molecular target: Serine/threonine-protein kinase MRCK alpha (Homo sapiens, UniProt Q5VT25); assay type: functional
# Caspase-3 = molecular target: T1, Caspase-3 (Homo sapiens, UniProt P42574); experiment: human caspase-3 protease activity blockade – biochemical, fluorescence, cherry-picked samples, selectivity assay for caspase-6 allosteric inhibitor project, dose response (AID 743291)
# T1 sequence (P42574 whole entry): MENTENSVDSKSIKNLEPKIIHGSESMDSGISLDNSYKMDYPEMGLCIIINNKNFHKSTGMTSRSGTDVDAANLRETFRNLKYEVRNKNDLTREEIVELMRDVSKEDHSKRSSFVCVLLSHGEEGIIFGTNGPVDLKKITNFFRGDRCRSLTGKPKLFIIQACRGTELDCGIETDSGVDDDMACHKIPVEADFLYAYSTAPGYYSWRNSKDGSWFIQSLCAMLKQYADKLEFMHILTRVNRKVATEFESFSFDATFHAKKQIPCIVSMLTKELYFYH
# [18] = molecular target: T2, Sentrin-specific protease 6 (Homo sapiens, UniProt Q9GZR1); assay type: functional;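 note: Luminescence-based dose-response confirmatory assay of SENP6 inhibition, following up an ultra-high-throughput screen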
# T2 sequence (Q9GZR1 whole entry): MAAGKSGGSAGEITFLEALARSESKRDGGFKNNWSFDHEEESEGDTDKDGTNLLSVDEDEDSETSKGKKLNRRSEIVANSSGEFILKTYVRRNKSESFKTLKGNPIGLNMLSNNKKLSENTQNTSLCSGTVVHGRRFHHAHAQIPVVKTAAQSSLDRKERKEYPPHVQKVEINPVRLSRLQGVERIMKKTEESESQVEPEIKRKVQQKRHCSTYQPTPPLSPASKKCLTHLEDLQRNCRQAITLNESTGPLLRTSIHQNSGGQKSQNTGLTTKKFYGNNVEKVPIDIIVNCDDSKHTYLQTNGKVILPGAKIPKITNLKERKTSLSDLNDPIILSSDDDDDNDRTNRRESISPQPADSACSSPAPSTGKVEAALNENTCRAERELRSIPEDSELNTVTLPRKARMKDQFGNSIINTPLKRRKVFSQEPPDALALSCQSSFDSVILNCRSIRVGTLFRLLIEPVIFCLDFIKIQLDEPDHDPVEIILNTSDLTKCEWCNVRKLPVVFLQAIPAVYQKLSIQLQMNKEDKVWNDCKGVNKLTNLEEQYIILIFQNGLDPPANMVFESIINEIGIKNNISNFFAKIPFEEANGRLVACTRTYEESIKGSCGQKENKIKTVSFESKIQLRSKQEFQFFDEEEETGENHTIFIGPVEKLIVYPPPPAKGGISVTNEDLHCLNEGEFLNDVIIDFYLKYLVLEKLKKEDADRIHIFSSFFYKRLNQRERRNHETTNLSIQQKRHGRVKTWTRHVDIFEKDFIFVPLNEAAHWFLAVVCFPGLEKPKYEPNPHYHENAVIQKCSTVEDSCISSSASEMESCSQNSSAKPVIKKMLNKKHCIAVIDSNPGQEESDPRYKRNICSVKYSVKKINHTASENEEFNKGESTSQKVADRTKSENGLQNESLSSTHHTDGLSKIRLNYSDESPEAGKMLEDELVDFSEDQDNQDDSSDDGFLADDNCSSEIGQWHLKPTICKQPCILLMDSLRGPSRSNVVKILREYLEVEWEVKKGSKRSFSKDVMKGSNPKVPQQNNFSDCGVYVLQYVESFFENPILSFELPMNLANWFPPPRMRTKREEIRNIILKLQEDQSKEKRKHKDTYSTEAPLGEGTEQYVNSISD
# Caspase-9 = Caspase-9 (Homo sapiens, UniProt P55211); experiment: inhibitors of purified CASP9 protease – biochemical, fluorescence, plate reader, cherry-picked samples, selectivity assay for caspase-6 inhibitor project, dose response (AID 743293)
# Caspase-8 = Caspase-8 (Homo sapiens, UniProt Q14790); experiment: inhibitors of purified CASP8 protease – biochemical, Z-IETD-R110 fluorescence, cherry-picked samples, selectivity assay for caspase-6 inhibitor project, dose response (AID 743294)
# Protein kinase C delta type, sequence (Q05655 whole entry): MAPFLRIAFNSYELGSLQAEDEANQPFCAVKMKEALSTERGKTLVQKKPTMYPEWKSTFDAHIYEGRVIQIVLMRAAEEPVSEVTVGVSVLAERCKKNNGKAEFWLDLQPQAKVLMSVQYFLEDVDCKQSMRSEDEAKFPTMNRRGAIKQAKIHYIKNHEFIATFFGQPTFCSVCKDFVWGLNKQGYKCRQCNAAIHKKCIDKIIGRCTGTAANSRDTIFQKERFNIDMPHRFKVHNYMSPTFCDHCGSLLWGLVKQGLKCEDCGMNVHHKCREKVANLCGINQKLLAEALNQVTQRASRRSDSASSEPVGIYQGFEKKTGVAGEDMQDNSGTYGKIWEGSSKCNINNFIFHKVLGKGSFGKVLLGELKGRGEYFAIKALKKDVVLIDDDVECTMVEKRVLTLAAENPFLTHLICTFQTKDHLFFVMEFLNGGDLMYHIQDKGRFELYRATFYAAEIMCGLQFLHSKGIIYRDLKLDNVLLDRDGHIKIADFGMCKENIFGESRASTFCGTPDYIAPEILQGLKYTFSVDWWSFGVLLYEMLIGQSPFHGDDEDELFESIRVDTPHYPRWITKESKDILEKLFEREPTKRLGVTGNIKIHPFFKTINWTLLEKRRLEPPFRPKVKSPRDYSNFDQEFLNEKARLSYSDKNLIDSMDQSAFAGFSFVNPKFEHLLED
# MAP kinase-activated protein kinase 2, sequence (P49137 whole entry): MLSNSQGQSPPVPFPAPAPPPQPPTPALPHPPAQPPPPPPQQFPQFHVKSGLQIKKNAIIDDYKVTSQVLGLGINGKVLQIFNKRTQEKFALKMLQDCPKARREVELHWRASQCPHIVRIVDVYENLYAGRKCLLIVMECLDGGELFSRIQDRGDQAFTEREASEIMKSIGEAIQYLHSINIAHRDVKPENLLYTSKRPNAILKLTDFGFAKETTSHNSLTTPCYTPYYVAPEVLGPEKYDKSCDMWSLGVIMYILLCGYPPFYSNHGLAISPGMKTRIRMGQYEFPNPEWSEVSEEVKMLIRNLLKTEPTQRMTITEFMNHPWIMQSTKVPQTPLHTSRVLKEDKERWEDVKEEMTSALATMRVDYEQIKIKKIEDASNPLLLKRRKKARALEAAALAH
# Calcium/calmodulin-dependent protein kinase type II subunit gamma, sequence (Q13555 whole entry): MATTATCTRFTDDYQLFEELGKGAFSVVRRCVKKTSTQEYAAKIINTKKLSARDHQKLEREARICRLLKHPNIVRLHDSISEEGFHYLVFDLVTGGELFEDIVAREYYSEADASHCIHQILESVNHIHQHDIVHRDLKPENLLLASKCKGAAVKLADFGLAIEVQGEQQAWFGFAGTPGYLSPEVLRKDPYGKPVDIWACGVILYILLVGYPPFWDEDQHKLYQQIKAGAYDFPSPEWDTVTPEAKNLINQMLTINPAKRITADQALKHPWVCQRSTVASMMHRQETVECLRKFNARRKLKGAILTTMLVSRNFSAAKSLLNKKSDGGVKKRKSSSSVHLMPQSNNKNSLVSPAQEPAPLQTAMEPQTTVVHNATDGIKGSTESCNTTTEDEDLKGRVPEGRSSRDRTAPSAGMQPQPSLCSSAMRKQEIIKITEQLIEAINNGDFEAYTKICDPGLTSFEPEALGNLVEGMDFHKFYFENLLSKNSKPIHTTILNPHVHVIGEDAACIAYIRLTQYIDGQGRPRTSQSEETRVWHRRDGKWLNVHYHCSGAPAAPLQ
# Phosphorylase b kinase gamma catalytic chain, liver/testis isoform, sequence (P15735 whole entry, canonical isoform): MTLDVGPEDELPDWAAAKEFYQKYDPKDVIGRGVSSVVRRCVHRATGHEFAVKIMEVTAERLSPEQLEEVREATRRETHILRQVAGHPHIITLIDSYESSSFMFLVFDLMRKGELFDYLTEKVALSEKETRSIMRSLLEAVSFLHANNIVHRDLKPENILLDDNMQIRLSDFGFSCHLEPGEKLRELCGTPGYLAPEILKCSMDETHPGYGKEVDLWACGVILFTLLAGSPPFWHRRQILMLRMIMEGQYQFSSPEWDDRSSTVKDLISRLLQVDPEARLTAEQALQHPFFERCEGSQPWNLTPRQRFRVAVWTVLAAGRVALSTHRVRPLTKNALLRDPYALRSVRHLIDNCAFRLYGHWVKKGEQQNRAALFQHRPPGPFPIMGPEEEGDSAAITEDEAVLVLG
# Mitogen-activated protein kinase 13, sequence (O15264 whole entry): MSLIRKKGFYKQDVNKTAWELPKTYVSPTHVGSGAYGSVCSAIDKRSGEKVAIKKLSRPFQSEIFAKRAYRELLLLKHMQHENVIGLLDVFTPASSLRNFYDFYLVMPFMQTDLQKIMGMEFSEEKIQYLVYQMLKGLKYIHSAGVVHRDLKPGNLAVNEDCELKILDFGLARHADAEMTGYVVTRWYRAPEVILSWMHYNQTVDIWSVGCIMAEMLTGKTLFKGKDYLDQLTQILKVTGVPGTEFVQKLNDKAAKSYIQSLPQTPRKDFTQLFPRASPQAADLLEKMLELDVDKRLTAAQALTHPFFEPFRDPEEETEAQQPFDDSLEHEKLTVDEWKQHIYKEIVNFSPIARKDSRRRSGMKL
# Serine/threonine-protein kinase MRCK alpha, sequence (Q5VT25 whole entry): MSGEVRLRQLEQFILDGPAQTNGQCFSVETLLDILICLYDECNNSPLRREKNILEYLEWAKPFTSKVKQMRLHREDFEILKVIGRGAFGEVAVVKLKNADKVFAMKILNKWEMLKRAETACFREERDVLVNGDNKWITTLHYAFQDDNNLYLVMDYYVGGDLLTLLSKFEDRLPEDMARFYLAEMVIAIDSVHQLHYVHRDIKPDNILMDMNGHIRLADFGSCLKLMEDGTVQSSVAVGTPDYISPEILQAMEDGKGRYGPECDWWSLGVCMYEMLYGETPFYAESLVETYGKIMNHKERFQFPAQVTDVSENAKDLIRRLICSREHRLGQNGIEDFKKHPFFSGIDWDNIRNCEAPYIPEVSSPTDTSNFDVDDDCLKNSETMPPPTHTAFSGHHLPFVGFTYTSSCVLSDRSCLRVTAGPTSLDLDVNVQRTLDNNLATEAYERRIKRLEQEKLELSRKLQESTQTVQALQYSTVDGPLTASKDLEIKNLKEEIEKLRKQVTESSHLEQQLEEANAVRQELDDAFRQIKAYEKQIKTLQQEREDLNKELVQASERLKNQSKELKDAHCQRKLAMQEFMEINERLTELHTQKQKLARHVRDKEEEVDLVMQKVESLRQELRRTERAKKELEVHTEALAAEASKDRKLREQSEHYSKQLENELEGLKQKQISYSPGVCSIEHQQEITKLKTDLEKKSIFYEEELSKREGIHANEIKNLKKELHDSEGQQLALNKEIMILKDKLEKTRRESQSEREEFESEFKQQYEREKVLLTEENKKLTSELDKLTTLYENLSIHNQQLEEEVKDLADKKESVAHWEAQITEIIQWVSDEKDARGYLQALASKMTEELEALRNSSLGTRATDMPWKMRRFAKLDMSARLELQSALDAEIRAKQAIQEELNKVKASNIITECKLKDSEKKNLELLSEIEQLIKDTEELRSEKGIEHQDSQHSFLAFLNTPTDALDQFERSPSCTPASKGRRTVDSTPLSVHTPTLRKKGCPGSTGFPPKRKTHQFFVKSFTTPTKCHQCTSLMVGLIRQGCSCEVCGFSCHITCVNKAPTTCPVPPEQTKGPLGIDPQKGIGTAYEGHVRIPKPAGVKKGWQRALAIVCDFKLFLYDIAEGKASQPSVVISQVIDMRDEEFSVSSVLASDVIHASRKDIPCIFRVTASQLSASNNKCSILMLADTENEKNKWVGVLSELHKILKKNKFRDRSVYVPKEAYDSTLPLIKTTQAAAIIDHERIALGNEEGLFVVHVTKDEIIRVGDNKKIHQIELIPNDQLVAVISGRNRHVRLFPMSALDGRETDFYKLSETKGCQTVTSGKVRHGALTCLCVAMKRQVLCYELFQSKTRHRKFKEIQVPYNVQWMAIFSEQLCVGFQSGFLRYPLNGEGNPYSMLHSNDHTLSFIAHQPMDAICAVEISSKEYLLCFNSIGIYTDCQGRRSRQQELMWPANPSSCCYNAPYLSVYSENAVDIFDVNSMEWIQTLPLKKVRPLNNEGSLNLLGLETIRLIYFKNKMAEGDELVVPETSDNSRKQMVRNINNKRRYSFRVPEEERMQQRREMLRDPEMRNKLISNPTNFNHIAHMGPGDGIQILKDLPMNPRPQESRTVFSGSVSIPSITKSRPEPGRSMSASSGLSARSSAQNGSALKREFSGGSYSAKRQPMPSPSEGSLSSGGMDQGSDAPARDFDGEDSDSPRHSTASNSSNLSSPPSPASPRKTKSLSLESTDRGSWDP
smiles,measurement,setting,value
OC1CCC(Nc2nc(Cl)cc(-c3c[nH]c4ncccc34)n2)CC1 (stereo not given),Ki,[1],200 nM (active)
same,pKi,[1],6.7
same,Ki,[2],> 7940 nM (inactive)
same,Ki,[3],63.1 nM (active)
same,pKi,[3],7.2
same,Ki,[4],31.6 nM (active)
same,pKi,[4],7.5
same,Ki,[5],12.6 nM (active)
same,pKi,[5],7.9
same,Ki,[6],3980 nM (active)
same,pKi,[6],5.4
same,Ki,[7],1260 nM (active)
same,pKi,[7],5.9
same,Ki,[8],126 nM (active)
same,pKi,[8],6.9
same,Ki,[9],200 nM (active)
same,pKi,[9],6.7
same,Ki,Ephrin type-A receptor 2,> 3160 nM (inactive)
same,Ki,[10],2510 nM (active)
same,pKi,[10],5.6
same,Ki,[11],200 nM (active)
same,pKi,[11],6.7
same,Ki,[12],398 nM (active)
same,pKi,[12],6.4
same,Ki,[13],> 10000 nM (inactive)
same,Ki,[14],> 2000 nM (inactive)
same,Ki,[15],251 nM (active)
same,pKi,[15],6.6
same,Ki,[16],> 3980 nM (inactive)
same,Ki,[17],31.6 nM (active)
same,pKi,[17],7.5
CCN(CC)CCCC(C)n1c2nc(=O)[nH]c(=O)c-2nc2cc(Cl)ccc21 (stereo not given),AC50,Caspase-3,561 nM (active)
O=C(COC(=O)c1ccc([N+](=O)[O-])s1)Nc1ccc(F)cc1,IC50,[18],3820 nM (active)
same,AC50,Caspase-9,27200 nM (active)
same,AC50,Caspase-8,18600 nM (active)
